Test results reported in article PMC10096453, “One-Pot Synthesis and Evaluation of Antioxidative Stress and Anticancer Properties of an Active Chromone Derivative” (Molecules, 2023).

Key:
[1] = system: HeLa cells; assay: Cellular ROS assay (ROS deep red fluorescence kit); format: cell-based; details: pretreatment 50, 100, 150 μM for 24 h; 5 mM H2O2 30 min
Procedure: ROS is the main contributor to cell death. These reactive molecules are formed by several mechanisms and can be detected by various techniques. In order to investigate the level of cellular ROS after treatment with compounds, the accumulation of intracellular ROS in cells was quantified with a cellular ROS assay kit (ab186029, Abcam, Boston, USA) fluorescence assay. After pretreatment with 2f, 2j, and 3i at 50, 100, and 150 μM for 24 h, cell stress was induced with 5 mM hydrogen peroxide for 30 min. The cells in each well were collected and resuspended with a serum-free medium containing the ROS red probe. Subsequently, cells were incubated at 37 °C for 30 min in the dark, and fluorescence was read at Ex/Em = 650/675 nm.
In this study, Hela cells were seeded overnight at 20,000 cells/90 µL/well in a black wall/clear bottom 96-well plate. Cells included those untreated (control) and those pre-treated with compounds at various concentrations (50, 100, 150 μM) for 24 h. The ROS deep red assay solution (100 μL/well) was added and incubated at 5% CO2, 37 °C incubator for 30 min. The fluorescence signal was monitored at Ex/Em = 650/675 nm (cut off = 665 nm) with bottom read mode within 30 min (cellular ROS assay kit, ab186029, abcam).

[2] = system: HeLa cells; assay: Apoptosis, Annexin V & Dead Cell flow cytometry; format: cell-based; details: IC50 concentration, 24 h
Procedure: Examining apoptosis induction by some samples was confirmed by the determination of annexin V (p ≤ 0.05) using the IC50 for 2b, 2e, 2f, 2j, and quercetin in the HeLa cell line (Figure 5a).
HeLa cells were seeded overnight at 1 × 10^5 cells/1.5 mL/well in a 6-well plate. […] The cells were […] and washed with PBS. The collected cells were diluted with serum-free medium to a suitable volume. The 100 μL of cell suspension was added to 100 μL of Muse^TM Annexin V & Dead Cell reagent and incubated for 20 min at room temperature. Cells were analyzed by flow cytometry (Guava Muse Cell Analyzer, Luminex, Austin, TX USA) with Guava suite software 3.4.

O=C(c1ccccc1)c1c(-c2ccccc2)oc2c(O)c(O)ccc2c1=O [2f, 3-Benzoyl-7,8-dihydroxy-2-phenyl-4H-chromen-4-one]
Cellular ROS fluorescence intensity vs H2O2-treated cells [1]: significantly reduced
Apoptosis induction [2]: induced apoptosis in tumor cells
Change in dead phase compared to the control [2]: +5.8%
Change in early apoptosis phase compared to the control [2]: +6.3%
Change in late apoptosis phase compared to the control [2]: +1.2%
Change in live phase compared to the control [2]: −12.1%

O=C(Oc1ccc2c(=O)c(C(=O)c3ccccc3)c(-c3ccccc3)oc2c1O)c1ccccc1 [2j, 3-Benzoyl-8-hydroxy-4-oxo-2-phenyl-4H-chromen-7-yl benzoate]
Cellular ROS fluorescence intensity vs H2O2-treated cells [1]: significantly reduced
